Source: patent US8372443B2, “Methods and compositions for the treatment and prevention of citrus greening disease” (priority 2008, dated 2013)

How the values were obtained:
D. citri [1] = assay: Y-tube olfactometer test; format: in vivo, Diaphorina citri
Description: In order to confirm the repellent effect of synthetic DMDS against D. citri, an additional study using a Y-tube olfactometer (ARS, Gainesville, Fla., USA) was conducted. The Y-tube consisted of a central stem (13.5 cm long, 2.4 cm o.d.) with two lateral arms (5.75 cm long, 2.4 cm o.d.). The lateral arms were connected to extending glass tubes (14.5 cm long, 1.9 cm o.d.) with inlayed sieves (5.25 cm away from connection) to prevent insect escape and serve as an end point of the lateral arms. Charcoal-filtered laboratory air was passed from an air pump, into each of the extending arms of the olfactometer at a rate 100 mL/min. […]
Adult psyllids that oriented to any of the four arms of the olfactometer were categorized as attracted and those that remained in the olfactometer's central orifice (release point) until the 1.5 h experimental period elapsed as repelled. […] Subsequently, data obtained for D. citri orientation to the four arms (two volatile sources and two laboratory air) was analyzed for each treatment using one-way step-wise ANOVA followed by Tukey's HSD test (P<0.05, SAS Institute Inc., 2003). The data obtained from the Y-tube olfactometer bioassays was analyzed using Chi-square (χ^2) analyses (Parker, 1979) to compare between the numbers of attracted versus repelled D. citri (P<0.05).

D. citri [2] = assay: 4-choice olfactometer behavioral bioassay; format: in vivo, Diaphorina citri; details: for t (percentages of repelled versus attracted D. citri, student's t-test): laboratory air, 1.5 h
Description: Adult D. citri used for the behavioral bioassays were drawn from a continuously reared culture at the University of Florida Citrus Research and Education Center (Lake Alfred, USA) and established in 2000 from field populations in Polk Co., FL, USA (28.0′N, 81.9′W) prior to the discovery of citrus greening disease in FL. This culture is maintained on sour orange (Citrus aurantium L.) and ‘Hamlin’ orange [C. sinensis (L.)] seedlings at 27±1° C., 63±2% RH, and L14:D10 photoperiod. Freshly emerged unsexed adult psyllids were first placed on citrus seedlings in Plexiglass cages for up to 7 d for sexual maturation prior to use in experiments.
Husbandry methods for the ‘white’ guava and ‘Hamlin’ citrus plants used in these investigations have been described previously (Rouseff et al., 2008). ‘Hamlin’ citrus was selected for analysis because it is one of the most highly cultivated citrus varieties in Florida. Half of the samples were gently crushed (using a clean glass rod) to simulate plant damage and the remaining half were not crushed. All samples ([…] leaf flush/sample) were wrapped in Kim wipes (Kimberly-Clark®, Ontario, Canada) and placed in 2.5 cm×12.5 cm extending glass tubes of a 4-choice olfactometer [Analytical Research Systems, ARS (Gainesville, Fla.)], for behavioral investigations described below.
Behavioral responses of D. citri to citrus volatiles with or without guava or DMDS volatiles were quantified using a 4-choice olfactometer (Analytical Research Systems, Inc. (ARS), Gainesville, Fla., USA) based on the design of Pettersson (1970), Vet et al. (1983) and Kalule & Wright (2004). The olfactometer consists of a 5 cm×30 cm×30 cm stage on four 2.5 cm×15 cm legs with extending orifices on four sides of the stage. Charcoal-purified and humidified air was drawn through these arms via a vacuum pump creating four potential odor fields. Air pulled through the olfactometer was evacuated through a central orifice on the floor of the stage. During each experimental run, two of the four orifices on the sides of the stage were designated for odor stimuli treatments and the two others were left as blank. […] The effect of repellent chemicals was measured by adding guava leaves or a formulation of synthetic DMDS to citrus flush in two arms of the olfactometer as described below. […]
The behavioral response of adult D. citri to clean laboratory air was first investigated to 4 blank arms of the olfactometer as a negative control to ensure no positional bias. Thereafter, D. citri response was measured to citrus leaf volatiles with and without volatiles from guava leaves or synthetic DMDS. […]

[3] = test system: Mediterranean fruit fly, Ceratitis capitata; details: literature reference 23; cited from earlier work

| Structure (SMILES) | effect on D. citri's response to citrus flush volatiles (D. citri [1]; Y-tube first experiment: 100 μL DMDS solution in mineral oil plus ~3.5 g citrus flush in both arms versus citrus alone, χ2=2.57, P=0.109) | percentage of D. citri choosing the arm releasing clean air versus DMDS (D. citri [1]; Y-tube second experiment: DMDS in mineral oil in one arm, clean laboratory air in the other, 300 s, χ2=5.0, P=0.025) [%] | repellence of adult D. citri at the selected dosage (preliminary investigation) (D. citri [2]; 100 μL of a 4.3 μg/μL (w/v) solution in mineral oil on cotton wick, compared with lower dosages on a log scale (data not shown)) | t (percentages of repelled versus attracted D. citri, student's t-test) (D. citri [2]; Experiment 2: arms laboratory air, intact citrus, DMDS, 100 μL of 4.3 μg/μL DMDS in mineral oil) | t (percentages of repelled versus attracted D. citri, student's t-test) (D. citri [2]; Experiment 3: arms laboratory air, crushed citrus, DMDS) | t (percentages of repelled versus attracted D. citri, student's t-test) (D. citri [2]; Experiment 4: arms laboratory air, mineral oil, DMDS (DMDS only)) | reported behavioural effect on Mediterranean fruit fly [3] |
| --- | --- | --- | --- | --- | --- | --- | --- |
| CSSC [DMDS, dimethyl disulfide] | significantly inhibited | ~75 | optimally repel | 3.05 | 7.23 | 6.25 |  |
| CC1=CC[C@H]2[C@H]3[C@@H]1[C@]2(C)CC[C@H]3C(C)C [α-Copaene] |  |  |  |  |  |  | attractant |
